In patent US6906170B1 (Yeda Research and Development Co. Ltd., priority 1998, dated 2005):
No end group written: not given here.

How the values were obtained:
human T cells [1] = assay: PHA- or IL-2-mediated T cell proliferation; format: cell-based; conditions: peptide 1 to 100 pg/ml
Description: The in vitro bioassays (a) to (e) are well-known in the art. Thus, for example, assays (a), (b) and (e) may be carried out as described in the section Materials and Methods hereinafter. […] The IL-2-derived peptides or their derivatives are added to the culture wells (different amounts, 10 microliters) for the entire period of the assay. [^3H]-Thymidine is added to the microtiter 96 U-form well plates 18 h before harvesting the cultures on day 3 onto glass fiber filters and counted by liquid scintillation counter. Mean CPM and SD from quadriplicate culture are then presented.

human T cells [2] = assay: T cell adhesion to FN induced by various activators; format: cell-based; conditions: for inhibition of T cell adhesion to FN induced by various stimulators: peptide 10 pg/ml, IL-2, IL-7, MIP-1β, PMA, 8A2 mAb, anti-CD3 mAb
Description: FIGS. 7A-7B show inhibition by pep2 (FIG. 7A) and pep1 (FIG. 7B) of T cell adhesion to FN, induced by various activators. […] (1 μg/ml), or anti-human CD3 mAb (1 μg/ml). The IL-2-derived peptides, pep1 or pep2, were also present in some wells. After 30 min at 37° C., non-adherent T cells were removed by washing, the remaining adherent cells were lysed, and the percentage of T cells that had adhered was determined. One experiment representative of four.
(§1) T cell adhesion assays. Human T cells were purified from the peripheral blood of healthy donors, and T cell adhesion to immobilized protein substrates was examined as follows: Human leukocytes were isolated on a Ficoll gradient, washed, and incubated (2 h, 37° C., 7.5% CO2, humidified atmosphere) on petri dishes. The non-adherent cells were then collected and incubated (1 h, 37° C., 7.5% CO2, humidified atmosphere) on nylon wool columns (Novamed Ltd., Jerusalem, Israel). Unbound cells were eluted from the columns by extensive washings. The resulting cell population was always >92% T cells. […] After 4-6 h at 37° C., the wells were washed and ^51[Cr]-labeled T cells were added to the wells, 10^5 cells/100 μl of adhesion medium (RPMI-1640 supplemented with 0.1% BSA, 1% sodium pyruvate, 1% HEPES buffer). The microtiter plates containing the cells were incubated (30 min, 37° C.) in a humidified, 7.5% CO2 atmosphere, and then washed. The adherent cells were lysed, and the resulting supernatants were removed and analyzed in a γ-counter. For each experimental group, the results were expressed as the mean percentage ±SD of bound T cells from quadruplicate wells.
Inhibition by the Ile-Val-Leu and […](SEQ ID NO:1) peptides of T cell adhesion to FN induced by various pro-inflammatory mediators and by mAb specific for molecules expressed on T cells.

human T cells [3] = assay: Secretion of TNF-α and IFN-γ from proliferating T cells; format: cell-based; conditions: peptide 1 to 100 pg/ml; not shown
T cells = assay: Staining of actin cytoskeleton in FN-adherent activated T cells; format: cell-based, human; conditions: TRITC-phalloidin staining
Description: FIGS. 8A-8E show inhibition by pep2 of the spreading and redistribution of the actin cytoskeleton in IL-2- and PMA-activated FN-adherent T cells. […] After incubation, the intracellular actin filaments of the fixed FN-attached T cells were stained. Original magnification, =1000.
Staining of actin cytoskeleton. T cells were incubated (18 h, 37° C., 7.5% CO2, humidified atmosphere) in culture medium. […] After 1 h at 37° C., the adherent cells were fixed (3 min) with paraformaldehyde (3%) and Triton X-100 (0.5%), washed, and fixed (20 min) again with paraformaldehyde (3%). The fixed adherent cells were washed, treated with TRITC-phalloidin, and washed again. Photographs (×1000 magnification) were then taken.
Inhibition of the reorganization of the actin cytoskeleton in FN-attached activated T cells by the […](SEQ ID NO:1) peptide. The adhesion of immune cells to ECM is dependent on the sequestering of the cytoplasmic domains of integrins in focal adhesion sites, together with actin-containing microfilament bundles (Sanchez-Mateos et al., 1996). Therefore, we examined the effect of […](SEQ ID NO:1) on the morphologies of adherent T cells. […] After incubation and fixation, the actin cytoskeleton of attached T cells was stained with TRITC-conjugated phalloidin. […]

human T cells [4] = assay: IL-2-induced T cell adhesion to LN, CO-IV and FN after peptide pre-treatment; format: cell-based; conditions: pre-exposed to peptide 10 pg/ml, then IL-2 10 U/ml
Description: The T cells were then seeded onto microtiter wells that were pre-coated (1 μg/well) with the various ECM glycoproteins. T cell adhesion was measured 30 min later.
as §1
Ile-Val-Leu, Arg-Met-Leu-Thr (SEQ ID NO:2) and […](SEQ ID NO:1) inhibit T cell adhesion to LN, CO-IV and FN. The next experiment was designed and performed to verify that the three IL-2-derived peptides indeed affect T cell interactions with ECM glycoproteins other than FN. […] The treated cells were then added to microtiter wells coated with CO-IV, LN, and FN.

human T cells [5] = assay: IL-2-induced T cell adhesion to fibronectin (FN); format: cell-based; conditions: for concentration giving maximum inhibition of IL-2-induced T cell adhesion to FN / concentration giving maximum inhibition of IL-2-induced T cell adhesion to FN (molar) / inhibition of adhesion of IL-2-activated T cells to FN: IL-2 10 U/ml; for inhibition of adhesion of IL-2-activated T cells to FN: 30 min at 37° C., dose range; for anti-adhesive effect after removal of peptide prior to IL-2 activation: T cells pre-treated 1 pg/ml, washed, then IL-2 and FN-coated wells
Description: as §1
The effect of synthetic peptides, with putative amino acid compositions corresponding to fractions 2 and 8, on IL-2-induced T cell adhesion to FN. […] These three peptides were synthesized, and their effects on IL-2-induced T cell adhesion to FN were studied. […] The inhibitory dose-response curves of Ile-Val-Leu and […](SEQ ID NO:1) are similar to those of the HPLC fractions 2 and 8, respectively, from which they were derived. […]

HT-29 cells = assay: Spontaneous IL-8 secretion from intestinal epithelial cells (ELISA); format: cell-based, human; design: IL-8 secretion Average O.D.: scale not given here; conditions: peptide 1 nM, 24 h at 37° C.; for IL-8 secretion Average O.D.: ELISA O.D. at 405 nm, medium alone 488 ± 8.5, background 71 ± 1.4; for IL-8 secretion % inhibition: spontaneous secretion
Description: Human colonic epithelial cell lines HT-29 (ATCC HTB38) and Caco-2 (ATCC […]) were obtained from the American Type Culture Collection (ATTC, Rockville, Md.). Cells were maintained in culture medium (DMEM supplemented with 10% cosmic calf serum (CSS), 2 mM glutamine, 100 U/ml penicillin, and 0.1 mg/ml streptomycin), at 37° C. and atmosphere of 5%, CO2. Cell viability was assessed using the standard MTT method.
Spontaneous or cytokine-induced secretion of IL-8 or IL-1β from intestinal epithelial cell. Test cells (HT-29 or Caco-2) were grown as confluent monolayers in 24-well tissue culture plates. […] When TNF-α was used, the peptides were added to the cells 1 hour prior to the addition of TNF-α. Following culture, the supernatants were harvested and analyzed for IL-8 or IL-1β secretion by ELISA using commercially available kits for IL-8 (Pharmingen) and IL-1β (Genzyme), according to the manufacturers' protocols.
The results in Table 1 show the O.D. readings of the ELISA assay (at 405 nm) as well as the percentage of inhibition of IL-8 secretion.

Row | Substance | interference with PHA- or IL-2-mediated proliferative responses (human T cells [1]) | inhibition of 8A2-induced T cell adhesion to FN (human T cells [2]; peptide 0.1 pg/ml) | inhibition of PMA-induced T cell adhesion to FN (human T cells [2]; peptide 0.1 pg/ml) | inhibition of T cell adhesion to FN induced by various stimulators (human T cells [2]) | inhibition of secretion of TNF-α and IFN-γ from proliferating T cells (human T cells [3]) | redistribution of the actin cytoskeleton in IL-2- and PMA-treated FN-adherent T cells (T cells) | inhibition of T cell adhesion to CO-IV, LN and FN (human T cells [4]) | concentration giving maximum inhibition of IL-2-induced T cell adhesion to FN (human T cells [5]) [pg/mL] | concentration giving maximum inhibition of IL-2-induced T cell adhesion to FN (molar) (human T cells [5]) [pM] | inhibition of adhesion of IL-2-activated T cells to FN (human T cells [5]) | anti-adhesive effect after removal of peptide prior to IL-2 activation (human T cells [5]) | IL-8 secretion Average O.D. (HT-29 cells) | IL-8 secretion % inhibition (HT-29 cells) [%] | inhibition of anti-CD3 mAb-induced T cell adhesion to FN (human T cells [2]; peptide 0.1 pg/ml)
1 | Glu-Phe-Leu-Asn-Arg-Trp-Ile-Thr (EFLNRWIT; not fully specified (C-terminus); printed as Glu-Phe-Leu-Asn-Arg-Trp-Ile-Thr) [pep2] | none of them, at 1 to 100 pg/ml, interfered with either PHA- or IL-2-mediated proliferative responses | did not inhibit | did not inhibit | inhibited T cell adhesion to FN | nor did these peptides inhibit the secretion of TNF-α and IFN-γ | inhibited the redistribution of the actin skeleton | inhibit T cell adhesion to the three major cell-adhesive glycoproteins of the ECM | 1 | 0.92 | inhibited, in a dose-dependent manner | most of the anti-adhesive effects of the three peptides persevered | 36 ± 4.2 | 108 | 
2 | Ile-Val-Leu [pep1] | none of them, at 1 to 100 pg/ml, interfered with either PHA- or IL-2-mediated proliferative responses | did not inhibit | did not inhibit | inhibited T cell adhesion to FN | nor did these peptides inhibit the secretion of TNF-α and IFN-γ | inhibition of the redistribution of the actin cytoskeleton | inhibit T cell adhesion to the three major cell-adhesive glycoproteins of the ECM | 1 | 2.91 | inhibited, in a dose-dependent manner | most of the anti-adhesive effects of the three peptides persevered | 54 ± 19.1 | 104 | did not inhibit
